Experimental data published in the supplement of paper PMC4977894.
± gives the standard deviation of the averaged measurements.

Legend:
[1] = tested on: Homo sapiens (human subject panel, olfactory perception); assay: perceived odor familiarity rating (rating 0-100); higher = more familiar
Method in brief: (§1)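 Values for familiarity, intensity and pleasantness are averaged over subjects. The panel of 55 healthy people aged 18–50 excluded the six lowest performers and rated each paraffin-oil dilution of a molecule at high and low concentrations. Ratings were made only for stimuli the subject reported smelling, on a slider converted to a 0–100 scale.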

[2] = tested on: Homo sapiens (human subject panel, olfactory perception); assay: perceived odor pleasantness rating (rating 0-100); higher = more pleasant
Method in brief: as §1

[3] = tested on: Homo sapiens (human subject panel, olfactory perception); assay: perceived odor intensity rating (rating 0-100); higher = stronger perceived smell
Method in brief: as §1

[4] = odor dilution in paraffin oil: 1/10
[5] = odor dilution in paraffin oil: 1/1,000
[6] = odor dilution in paraffin oil: 1/100,000
[7] = odor dilution in paraffin oil: 1/10,000,000

Row | Structure (SMILES) | perceived odor familiarity rating [1, 4] | perceived odor familiarity rating [1, 5] | perceived odor pleasantness rating [2, 4] | perceived odor pleasantness rating [2, 5] | perceived odor intensity rating [3, 4] | perceived odor intensity rating [3, 5] | perceived odor familiarity rating [1, 6] | perceived odor pleasantness rating [2, 6] | perceived odor intensity rating [3, 6] | perceived odor familiarity rating [1, 7] | perceived odor pleasantness rating [2, 7] | perceived odor intensity rating [3, 7]
1 | N=C(N)NCCC[C@H](N)C(=O)O [L-Arginine] | 29.4 ± 33 | 30.3 ± 24 | 47.9 ± 24 | 44.6 ± 19 | 19.2 ± 25 | 20.4 ± 22 |  |  |  |  |  | 
2 | N[C@@H](CS)C(=O)O [L-Cysteine] | 46.2 ± 36 | 33.8 ± 28 | 12.8 ± 20 | 39 ± 23 | 71.7 ± 30 | 33.4 ± 30 |  |  |  |  |  | 
3 | N[C@@H](CCC(=O)O)C(=O)O [L-Glutamic acid] | 34.7 ± 30 | 30.3 ± 31 | 37.1 ± 23 | 47.5 ± 26 | 52.7 ± 31 | 29.8 ± 27 |  |  |  |  |  | 
4 | NC(=O)CC[C@H](N)C(=O)O [L-Glutamine] |  | 32.6 ± 26 |  | 51.7 ± 21 |  | 29.1 ± 28 | 35.8 ± 30 | 49.6 ± 27 | 19 ± 27 |  |  | 
5 | N[C@@H](Cc1c[nH]cn1)C(=O)O [L-Histidine] | 44.2 ± 29 | 28.5 ± 28 | 34.6 ± 26 | 44.3 ± 26 | 53.2 ± 34 | 19.9 ± 24 |  |  |  |  |  | 
6 | CC(C)C[C@H](N)C(=O)O [L-Leucine] | 45.5 ± 31 | 42.9 ± 31 | 22.9 ± 26 | 46.4 ± 27 | 70.9 ± 27 | 46.9 ± 29 |  |  |  |  |  | 
7 | NCCCC[C@H](N)C(=O)O [L-Lysine] | 45.4 ± 34 | 48.9 ± 31 | 18.5 ± 24 | 27.4 ± 22 | 81.7 ± 22 | 59.1 ± 30 |  |  |  |  |  | 
8 | CC(=O)OC1CC(C)CCC1C(C)C [L-Menthyl acetate (replicate)] | 56.9 ± 30 | 39.2 ± 30 | 61.6 ± 21 | 58.9 ± 18 | 59.6 ± 29 | 34.3 ± 28 |  |  |  |  |  | 
9 | CC(=O)OC1CC(C)CCC1C(C)C [L-Menthyl acetate] | 57.8 ± 31 | 45.6 ± 25 | 61.5 ± 25 | 53.4 ± 23 | 63.7 ± 26 | 15.4 ± 24 |  |  |  |  |  | 
10 | CSCC[C@H](N)C(=O)O [L-Methionine] | 45.7 ± 36 | 41.6 ± 30 | 18.4 ± 21 | 31.5 ± 25 | 78.9 ± 23 | 48.3 ± 34 |  |  |  |  |  | 
11 | N[C@@H](Cc1ccccc1)C(=O)O [L-Phenylalanine] | 39.1 ± 28 | 33.7 ± 31 | 39.9 ± 28 | 44.3 ± 29 | 34.4 ± 33 | 30.1 ± 30 |  |  |  |  |  | 
12 | O=C(O)[C@@H]1CCCN1 [L-Proline] | 45.3 ± 30 | 45.8 ± 35 | 27.9 ± 28 | 22.8 ± 24 | 81.4 ± 20 | 60.2 ± 31 |  |  |  |  |  | 
13 | N[C@@H](Cc1ccc(O)cc1)C(=O)O [L-Tyrosine] |  | 37.4 ± 27 |  | 44 ± 23 |  | 30.7 ± 28 | 26.6 ± 26 | 44.1 ± 30 | 25.3 ± 33 |  |  | 
14 | CC(C)[C@H](N)C(=O)O [L-Valine] | 39.1 ± 31 | 41.5 ± 34 | 40.9 ± 25 | 50.5 ± 24 | 42.1 ± 29 | 33.1 ± 33 |  |  |  |  |  | 
15 | CCCCCCCCCCCC(=O)O [Lauric acid (replicate)] | 50.6 ± 32 | 34.1 ± 27 | 28.8 ± 22 | 35.4 ± 22 | 72.2 ± 25 | 36 ± 32 |  |  |  |  |  | 
16 | CCCCCCCCCCCC(=O)O [Lauric acid] | 49.1 ± 34 | 37.4 ± 33 | 28.7 ± 20 | 45.8 ± 25 | 71.6 ± 27 | 25.3 ± 24 |  |  |  |  |  | 
17 | CCCCCCCCCCCCOC(C)=O [Lauryl acetate] |  | 33.3 ± 27 |  | 43.5 ± 24 |  | 33 ± 30 | 36.6 ± 27 | 49.5 ± 26 | 23 ± 27 |  |  | 
18 | CCCCCCCCCCCCO [Lauryl alcohol] | 50.1 ± 29 | 32 ± 30 | 35.8 ± 25 | 43 ± 26 | 64.6 ± 28 | 24.8 ± 31 |  |  |  |  |  | 

Row | Structure (SMILES) | perceived odor familiarity rating [1, 4] | perceived odor familiarity rating [1, 5] | perceived odor pleasantness rating [2, 4] | perceived odor pleasantness rating [2, 5] | perceived odor intensity rating [3, 4] | perceived odor intensity rating [3, 5] | perceived odor familiarity rating [1, 6] | perceived odor pleasantness rating [2, 6] | perceived odor intensity rating [3, 6] | perceived odor familiarity rating [1, 7] | perceived odor pleasantness rating [2, 7] | perceived odor intensity rating [3, 7]
19 | C=CC(C)(O)CCC=C(C)C (stereo unspecified) [Linalool] |  | 60.6 ± 32 |  | 74.6 ± 19 |  | 62.1 ± 26 | 39.9 ± 30 | 66 ± 23 | 32.6 ± 25 |  |  | 
20 | C=CC(C)(CCC=C(C)C)OC(C)=O (stereo unspecified) [Linalyl acetate] |  | 39.3 ± 31 |  | 56.9 ± 24 |  | 29.8 ± 30 | 38.1 ± 31 | 44.5 ± 21 | 31.5 ± 30 |  |  | 
21 | CCCCC/C=C\C/C=C\CCCCCCCC(=O)O [Linoleic acid (replicate)] | 46.6 ± 35 | 53.2 ± 30 | 20.4 ± 24 | 31.7 ± 20 | 91.6 ± 11 | 66.6 ± 26 |  |  |  |  |  | 
22 | CCCCC/C=C\C/C=C\CCCCCCCC(=O)O [Linoleic acid] | 48.7 ± 34 | 41.2 ± 27 | 13.9 ± 15 | 31.2 ± 21 | 90.8 ± 13 | 64.8 ± 23 |  |  |  |  |  | 
23 | CC(C)CC(=O)O[C@@H]1C[C@H](C)CC[C@H]1C(C)C [Menthyl isovalerate] |  | 39.5 ± 27 |  | 56.9 ± 25 |  | 33.9 ± 28 | 35 ± 33 | 49.4 ± 24 | 18.6 ± 24 |  |  | 
24 | COC(=O)c1ccccc1OC [Methyl 2-methoxybenzoate] |  | 40.8 ± 31 |  | 48.1 ± 26 |  | 47.5 ± 31 | 37.5 ± 28 | 45.9 ± 25 | 20.6 ± 24 |  |  | 
25 | CCCCCCC#CC(=O)OC [Methyl 2-nonynoate] |  | 61.9 ± 33 |  | 65 ± 27 |  | 71.1 ± 21 | 55.3 ± 28 | 58.5 ± 29 | 55.3 ± 30 |  |  | 
26 | COC(=O)CCSC [Methyl 3-(methylthio)propionate] |  |  |  |  |  |  | 31 ± 25 | 41 ± 21 | 25.6 ± 28 | 40.3 ± 32 | 43.2 ± 26 | 27.7 ± 30
27 | COC(=O)CSC [Methyl (methylthio)acetate] |  | 45.8 ± 30 |  | 17.9 ± 24 |  | 81.7 ± 16 | 38.9 ± 32 | 37.7 ± 27 | 37.8 ± 31 |  |  | 
28 | CCC(=O)OC [Methyl Propionate] |  | 48.6 ± 31 |  | 55.8 ± 27 |  | 38.7 ± 31 | 32.6 ± 29 | 55.7 ± 20 | 19 ± 23 |  |  | 
29 | COC(=O)c1ccccc1N [Methyl anthranilate] |  | 61.8 ± 31 |  | 65.3 ± 24 |  | 74.6 ± 18 | 56.7 ± 30 | 64 ± 25 | 58.3 ± 30 |  |  | 
30 | CC(=O)c1ccc2ccccc2c1 [Methyl beta-naphthyl ketone] | 58 ± 30 | 62.6 ± 27 | 54.4 ± 30 | 60.7 ± 25 | 78.8 ± 16 | 63.8 ± 26 |  |  |  |  |  | 
31 | CCCC(=O)OC [Methyl butyrate] |  | 48.2 ± 29 |  | 32.9 ± 31 |  | 79.2 ± 19 | 45.1 ± 32 | 27.8 ± 25 | 42.8 ± 30 |  |  | 
32 | CCCCCCCC(=O)OC [Methyl caprylate] |  | 46.9 ± 32 |  | 68.5 ± 23 |  | 47.9 ± 33 | 40.5 ± 26 | 50.1 ± 26 | 40.6 ± 29 |  |  | 
33 | CCCCCCC(=O)OC [Methyl heptanoate] |  | 48.9 ± 33 |  | 58.8 ± 25 |  | 52.9 ± 30 | 39.5 ± 30 | 53 ± 24 | 21.7 ± 28 |  |  | 
34 | C=C(C)C(=O)OC [Methyl methacrylate] |  | 45.7 ± 28 |  | 39.3 ± 25 |  | 55 ± 33 | 37 ± 26 | 47.4 ± 26 | 15.1 ± 22 |  |  | 
35 | COC(=O)c1cccnc1 [Methyl nicotinate] | 37.2 ± 30 | 43.5 ± 30 | 38.4 ± 29 | 38.3 ± 24 | 71.6 ± 28 | 63 ± 26 |  |  |  |  |  | 
36 | CCCCCCCCC(=O)OC [Methyl nonanoate] |  | 50.8 ± 30 |  | 57.8 ± 26 |  | 57 ± 28 | 45.9 ± 30 | 57.9 ± 24 | 28.8 ± 30 |  |  | 
